Converted amounts (≈) assume the structure as drawn. Like-named read-outs stand apart in the source and are kept apart here.
What was measured:
thymocyte proliferation = test: Comitogen-induced thymocyte proliferation procedure (LAF); type: cell-based, BALB/c mice; details: for LAF (ratio): ratio relative to rapamycin (rapamycin 1.0), 72 h culture, PHA and IL-1
Procedure: (§1) Immunosuppressive activity was evaluated in an in vitro standard pharmacological test procedure to measure lymphocyte proliferation (LAF) and in two in vivo standard pharmacological test procedures. The first in vivo procedure was a popliteal lymph node (PLN) test procedure which measured the effect of compounds of this invention on a mixed lymphocyte reaction and the second in vivo procedure evaluated the survival time of a pinch skin graft.
Briefly, cells from the thymus of normal BALB/c mice are cultured for 72 hours with PHA and IL-1 and pulsed with tritiated thymidine during the last six hours. […] Cells are harvested and incorporated; radioactivity is determined. Inhibition of lymphoproliferation is assessed in percent change in counts per minute from non-drug treated controls. The results are expressed by the following ratio, or as the percent inhibition of lymphoproliferation of 1 μM. [formula]

pinch skin graft = test: Survival time of pinch skin graft; type: in vivo, male DBA/2 donors transplanted to male BALB/c recipients; details: intraperitoneal; mean ± S.D.
Procedure: as §1
The second in vivo test procedure is designed to determine the survival time of pinch skin graft from male DBA/2 donors transplanted to male BALB/c recipients. The method is adapted from Billingham R. E. and Medawar P. B., J. Exp. Biol. 28:385-402, (1951). Briefly, a pinch skin graft from the donor is grafted on the dorsum of the recipient as a homograft, and an autograft is used as control in the same region. […] Untreated recipients serve as rejection control. The graft is monitored daily and observations are recorded until the graft becomes dry and forms a blackened scab. This is considered as the rejection day. The mean graft survival time (number of days±S.D.) of the drug treatment group is compared with the control group.

Candida albicans [1] = test: Plate test procedure for measurement of inhibition (antifungal activity); type: cell-based
Procedure: The following represents the typical procedure used. Compound to be tested was placed on sterile dried 1/4" plate disks, and allowed to dry. Agar plates were seeded with fungi and allowed to solidify. The impregnated disks were placed on the seeded Agar surface and incubated for the time required for the particular culture. Results are expressed in MIC (μg/ml) to inhibit growth.

[2] = test system: mixed lymphocyte reaction; test: Popliteal lymph node (PLN) test procedure (mixed lymphocyte reaction in vivo); set-up: species or system C3H mice (recipient), BALB/c donors; details: ratio relative to rapamycin (rapamycin 1.0); drug daily p.o. Day 0 to Day 4
Procedure: as §1
A mixed lymphocyte reaction (MLR) occurs when lymphoid cells from genetically distinct animals are combined in tissue culture. Each stimulates the other to undergo blast transformation which results in increased DNA synthesis that can be quantified by the incorporation of tritiated thymidine. Since stimulating a MLR is a function of disparity at Major Histocompatibility antigens, as in vivo popliteal lymph node (PLN) test procedure closely correlates to host vs. graft disease. Briefly, irradiated spleen cells from BALB/c donors are injected into the right hind foot pad of recipient C3H mice. The drug is given daily, p.o. from Day 0 to Day 4. On Day 3 and Day 4, tritiated thymidine is given i.p., b.i.d.. On Day 5, the hind popliteal lymph nodes are removed and dissolved, and radioactivity counted. […] Percent suppression is calculated using the non-drug treated animals as allogenic control. […]

Candida albicans [3] = details: particularly against Candida albicans, both in vitro and in vivo; cited from earlier work
[4] = alone or in combination with picibanil; cited from earlier work
[5] = test system: experimental allergic encephalomyelitis; details: model for multiple sclerosis; cited from earlier work
[6] = ATCC38246, strain ATCC 38246, read-out: MIC
[7] = ATCC38247, strain ATCC 38247, read-out: MIC
[8] = ATCC38248, strain ATCC 38248, read-out: MIC

Compound	suppression of T-cell proliferation (LAF), in words (thymocyte proliferation)	LAF (ratio) (thymocyte proliferation)	Skin graft survival time (days + SD) (pinch skin graft) [days]	MIC (Candida albicans [1]; ATCC10231) [µg/mL]	MIC (Candida albicans [1]; [6]) [µg/mL]	MIC (Candida albicans [1]; [7]) [µg/mL]	MIC (Candida albicans [1]; [8]) [µg/mL]	MIC (Candida albicans [1]; strain 3669, read-out: MIC) [µg/mL]	MIC (Candida albicans [1]; ATCC10231, strain ATCC 10231, read-out: MIC) [µg/mL]	PLN (ratio) [2]	antifungal activity (Candida albicans [3])	antitumor activity [4]	effectiveness in experimental allergic encephalomyelitis model [5]
CCOC(=O)CO[C@@H]1CC[C@@H](C[C@@H](C)[C@@H]2CC(=O)[C@H](C)/C=C(\C)[C@@H](O)[C@@H](OC)C(=O)[C@H](C)C[C@H](C)/C=C/C=C/C=C(\C)[C@@H](OC)C[C@@H]3CC[C@@H](C)[C@@](O)(O3)C(=O)C(=O)N3CCCC[C@H]3C(=O)O2)C[C@H]1OC [Example 1, 42-Deoxy-42-(2-ethoxy-2-oxoethoxy)rapamycin]	suppressed T-cell proliferation	0.46	7.5 ± 1.2	0.5 (≈ 0.5 µM)	0.1 (≈ 0.1 µM)	0.2 (≈ 0.2 µM)	0.1 (≈ 0.1 µM)	0.05 (≈ 0.05 µM)					
CO[C@H]1C[C@@H]2CC[C@@H](C)[C@@](O)(O2)C(=O)C(=O)N2CCCC[C@H]2C(=O)O[C@H]([C@H](C)C[C@@H]2CC[C@@H](OCC(=O)OC(C)(C)C)[C@H](OC)C2)CC(=O)[C@H](C)/C=C(\C)[C@@H](O)[C@@H](OC)C(=O)[C@H](C)C[C@H](C)/C=C/C=C/C=C/1C [Example 2, 42-Deoxy-42-[2-(1,1-dimethylethoxy)-2-oxoethoxy]rapamycin]	suppressed T-cell proliferation	0.27			0.2 (≈ 0.194 µM)	0.05 (≈ 0.0486 µM)	0.1 (≈ 0.0972 µM)	0.2 (≈ 0.194 µM)	0.05 (≈ 0.0486 µM)				
CO[C@H]1C[C@@H]2CC[C@@H](C)[C@@](O)(O2)C(=O)C(=O)N2CCCC[C@H]2C(=O)O[C@H]([C@H](C)C[C@@H]2CC[C@@H](O)[C@H](OC)C2)CC(=O)[C@H](C)/C=C(\C)[C@@H](O)[C@@H](OC)C(=O)[C@H](C)C[C@H](C)/C=C/C=C/C=C/1C [Rapamycin, rapamycin]										1.0	found to have antifungal activity	shown to have antitumor activity	effective in the experimental allergic encephalomyelitis model
